test: not given; details: not given

Point of comparison: CC(C)N=C(NC#N)NS(=O)(=O)c1cnccc1Nc1cccc(F)c1, logP 0.59. Against it:
- CCCNc1ccncc1S(=O)(=O)NC(=NC#N)NC(C)C — lower, -0.43
- N#CN=C(NS(=O)(=O)c1cnccc1NC1CCCCCCC1)N1CCCC1 — higher, 2.15
- CC(C)NC(=NC#N)NS(=O)(=O)c1cnccc1Nc1cccc(Br)c1 — higher, 1.27
- CC(C)NC(=NC#N)NS(=O)(=O)c1cnccc1Nc1ccc(Cl)cc1 — higher, 1.37
- CC(C)NC(=NC#N)NS(=O)(=O)c1cnccc1NC1CC1 — lower, -0.77
- Cc1ccc(Nc2ccncc2S(=O)(=O)NC(=NC#N)NC(C)C)cc1 — higher, 0.91
- CCNc1ccncc1S(=O)(=O)NC(=NC#N)NC(C)C — lower, -1.02
- CC(C)CNc1ccncc1S(=O)(=O)NC(=NC#N)NC(C)C — lower, 0.1
- Cc1cccc(Nc2ccncc2S(=O)(=O)NC(=NC#N)NC(C)C)c1 — higher, 0.86
- Cc1ccccc1Nc1ccncc1S(=O)(=O)NC(=NC#N)NC(C)C — within 0.2 log units, 0.67
- CC(C)NC(=NC#N)NS(=O)(=O)c1cnccc1NC1CCCCC1 — within 0.2 log units, 0.75
- CC(C)NC(=NC#N)NS(=O)(=O)c1cnccc1Nc1cccc(I)c1 — higher, 1.51
- CNc1ccncc1S(=O)(=O)NC(=NC#N)NC(C)C — lower, -1.43
- CCNC(=NC#N)NS(=O)(=O)c1cnccc1NC1CCCCC1 — lower, 0.16
- CCNC(=NC#N)NS(=O)(=O)c1cnccc1NC1CCCCCC1 — within 0.2 log units, 0.75
- CC(C)NC(=NC#N)NS(=O)(=O)c1cnccc1NC1CCCC1 — lower, 0.2
- CC(C)NC(=NC#N)NS(=O)(=O)c1cnccc1NC1CCCCCCC1 — higher, 1.8
- CC(C)NC(=NC#N)NS(=O)(=O)c1cnccc1NC1CCCCCCCCCCC1 — higher, 3.73
- CC(C)NC(=NC#N)NS(=O)(=O)c1cnccc1Nc1cccc(Cl)c1 — higher, 1.14
- N#CN=C(NS(=O)(=O)c1cnccc1NC1CCCCCC1)N1CCCC1 — higher, 1.65

test: method code SF, from DOI: 10.1016/0223-5234(96)88244-4; details: pH 7.4

In the case of N#CN=C(NS(=O)(=O)c1cnccc1NC1CCCCC1)N1CCCC1, the logD is reported as 1.07.

From the SangsterLogP compilation
